Source: patent publication US12285407B2, “Bis-indolylmethane derivatives and uses thereof” (The University of The West Indies, priority 2018, dated 2025)
Where two headings read alike, the source gives them in different places.

How the values were obtained:
[1] = test system: Streptococcus pneumoniae; assay: Adjuvant broth microdilution (antibiotic MIC with SP-BIM at 50 μg/mL); format: cell-based; details: Streptococcus pneumoniae, Streptococcus pneumonia
[2] = test system: Candida albicans; assay: Checkerboard synergy (FICI) of antibiotics with SP-BIM; parameters: MIC SP-BIM 13 only / MIC in combination: Antibiotic / MIC antibiotic only: unit not given beside the values
[3] = test system: Pseudomonas aeruginosa; assay: Adjuvant broth microdilution (antibiotic MIC with SP-BIM at 50 μg/mL); format: cell-based; details: antibiotic alone
[4] = test system: clinical strains of MRSA; assay: Kirby Bauer disc diffusion susceptibility profile; format: cell-based, Staphylococcus aureus; details: for Zone of clearance: 35° C., 24 hours, average n=3; for Interpretive standard (resistant/susceptible): zones vs EUCAST breakpoints (Table 30)
[5] = test system: clinical antibiotic resistant isolates of MRSA; assay: Checkerboard resistance breaking by SP-BIM 13; format: cell-based, Staphylococcus aureus; details: for Rescue concentration of SP-BIM 13: SP-BIM 13 with the labelled antibiotic; for MIC of antibiotic only: antibiotic alone; for FIC antibiotic: combination with SP-BIM 13; for MIC of antibiotic in combination: with SP-BIM 13 at rescue concentration
[6] = test system: Enterococcus faecalis; assay: Adjuvant broth microdilution (antibiotic MIC with SP-BIM at 50 μg/mL); format: cell-based; details: antibiotic alone
[7] = test system: Bacillus cereus; assay: as above; format: cell-based; details: antibiotic alone, Table 9
[8] = test system: Escherichia coli O157:H7; format: cell-based; details: antibiotic alone, no SP-BIM
[9] = test system: Enterobacter cloacae; assay: Adjuvant broth microdilution (antibiotic MIC with SP-BIM at 50 μg/mL); format: cell-based; details: antibiotic alone
[10] = test system: Klebsiella pneumoniae; assay: Checkerboard synergy (FICI) of antibiotics with SP-BIM; format: cell-based
[11] = test system: Streptococcus pneumoniae; assay: as above; format: cell-based
[12] = test system: Escherichia coli; assay: as above; parameters: MIC SP-BIM 13 only / MIC in combination: Antibiotic: unit not given beside the values; details: for MIC: 24 h
[13] = test system: Bacillus cereus; assay: as above; format: cell-based
[14] = test system: MRSA; assay: Adjuvant broth microdilution (antibiotic MIC with SP-BIM at 50 μg/mL); format: cell-based, Staphylococcus aureus; details: antibiotic alone
[15] = test system: Staphylococcus aureus; assay: Checkerboard synergy (FICI) of antibiotics with SP-BIM; format: cell-based; details: Staphylococcus aureus, Staphylococcus aureus
[16] = test system: MRSA HS 10132; assay: Systemic lethal MRSA infection in mice (survival); format: in vivo
[17] = test system: Enterococcus faecium; assay: Checkerboard synergy (FICI) of antibiotics with SP-BIM; format: cell-based; details: Enterococcus faecium; SP-BIM 13 alone, one value per antibiotic's checkerboard; read-out: MIC SP-BIM 13 only
[18] = MIC of the antibiotic in combination with SP-BIM 13
[19] = SP-BIM 13 in combination with the labelled antibiotic
[20] = MRSA strain 5872, antibiotic + SP-BIM 13
[21] = 24 h, antibiotic alone, SP-BIM 9 checkerboard, read-out: MIC antibiotic only
[22] = 24 h, antibiotic alone, SP-BIM 13 checkerboard, read-out: MIC antibiotic only
[23] = SP-BIM 9 in combination with the labelled antibiotic
[24] = antibiotic in combination with SP-BIM 9
[25] = antibiotic in combination with SP-BIM 13
[26] = Streptococcus pneumonia (title: Streptococcus pyogenes), antibiotic + SP-BIM 9
[27] = SP-BIM 13 alone, one value per antibiotic's checkerboard, read-out: MIC SP-BIM 13 only
[28] = SP-BIM 13 alone, one value per antibiotic's checkerboard

CC[C@H]1OC(=O)[C@H](C)[C@@H](O[C@H]2C[C@@](C)(OC)[C@@H](O)[C@H](C)O2)[C@H](C)[C@@H](O[C@@H]2O[C@H](C)C[C@H](N(C)C)[C@H]2O)[C@](C)(O)C[C@@H](C)C(=O)[C@H](C)[C@@H](O)[C@]1(C)O [Erythromycin, erythromycin]
MIC ([1]; antibiotic alone, Table 5, read-out: MIC of antibiotic, No compound): 4 µg/mL | MIC ([2]; 24 h, read-out: MIC antibiotic only): 16 µg/mL | MIC in combination: Antibiotic [2, 18]: 1 | FIC of SP-BIM 13 [2, 19]: 1.0 | Interpretation ([2]; antibiotic + SP-BIM 13): Indifferent (Indifferent: FICI>1.0-4.0) | Σ FIC ([2]; antibiotic + SP-BIM 13): <1.1 | FIC of antibiotic ([2]; combination with SP-BIM 13): 0.1 | MIC of antibiotic, No Compound [3]: >250 µg/mL | Zone of clearance ([4]; MRSA strain 1594): 19.0 mm | Interpretive standard (resistant/susceptible) ([4]; MRSA strain 1594): S | Zone of clearance ([4]; MRSA strain 1621): 21.5 mm | Interpretive standard (resistant/susceptible) ([4]; MRSA strain 1621): S | Zone of clearance ([4]; MRSA strain 5455): 20.5 mm | Interpretive standard (resistant/susceptible) ([4]; MRSA strain 5455): S | Zone of clearance ([4]; MRSA strain 5872): 0.0 mm | Interpretive standard (resistant/susceptible) ([4]; MRSA strain 5872): R | Zone of clearance ([4]; MRSA strain 7153): 18.5 mm | Interpretive standard (resistant/susceptible) ([4]; MRSA strain 7153): S | Zone of clearance ([4]; MRSA strain 7172): 17.5 mm | Interpretive standard (resistant/susceptible) ([4]; MRSA strain 7172): S | Zone of clearance ([4]; MRSA strain 7698): 17.5 mm | Interpretive standard (resistant/susceptible) ([4]; MRSA strain 7698): S | Zone of clearance ([4]; MRSA strain 10132): 9.0 mm | Interpretive standard (resistant/susceptible) ([4]; MRSA strain 10132): R | Rescue concentration of SP-BIM 13 ([5]; MRSA strain 5872): 32 µg/mL | Interpretation [5, 20]: Synergy (Synergy: FICI≤0.5) | Σ FIC [5, 20]: <0.14 | MIC of antibiotic only ([5]; MRSA strain 5872): 250 µg/mL | FIC antibiotic ([5]; MRSA strain 5872): 0.016 | MIC of antibiotic in combination ([5]; MRSA strain 5872): 4 µg/mL | Rescue concentration of SP-BIM 13 ([5]; MRSA strain 10132): 32 µg/mL | Interpretation ([5]; MRSA strain 10132, antibiotic + SP-BIM 13): Synergy (Synergy: FICI≤0.5) | MIC of antibiotic only ([5]; MRSA strain 10132): 250 µg/mL | FIC antibiotic ([5]; MRSA strain 10132): 0.004 | MIC of antibiotic in combination ([5]; MRSA strain 10132): 1 µg/mL | MIC of antibiotic, No Compound [6]: 250 µg/mL | MIC of antibiotic, No Compound [7]: 4 µg/mL | MIC of antibiotic, No Compound [8]: 250 µg/mL | MIC of antibiotic, No Compound [9]: >250 µg/mL | MIC [10, 21]: 250 µg/mL | MIC [10, 22]: 16 µg/mL | FIC of SP-BIM 9 [10, 23]: 0.5 | FIC of SP-BIM 13 [10, 19]: 1.0 | Interpretation ([10]; antibiotic + SP-BIM 9): Additive (Additive: FICI>0.5-1.0) | Σ FIC ([10]; antibiotic + SP-BIM 9): <0.8 | Interpretation ([10]; antibiotic + SP-BIM 13): Indifferent (Indifferent: FICI>1.0-4.0) | Σ FIC ([10]; antibiotic + SP-BIM 13): <2.0 | MIC in combination, Antibiotic [10, 24]: 63 µg/mL | MIC in combination, Antibiotic [10, 25]: 16 µg/mL | FIC of antibiotic ([10]; in combination with SP-BIM 9): 0.252 | FIC of antibiotic ([10]; in combination with SP-BIM 13): 1.0 | FIC of SP-BIM 9 ([11]; Streptococcus pneumonia (title: Streptococcus pyogenes), SP-BIM 9 in combination with the labelled antibiotic): 1.00 | Interpretation [11, 26]: Indifference | Σ FIC [11, 26]: <2.00 | MIC in combination, Antibiotic ([11]; Streptococcus pneumonia (title: Streptococcus pyogenes), antibiotic in combination with SP-BIM 9): >250 µg/mL | FIC of antibiotic ([11]; Streptococcus pneumonia (title: Streptococcus pyogenes), in combination with SP-BIM 9): 1.00 | MIC ([11]; Streptococcus pneumoniae, 24 h, Streptococcus pneumonia (title: Streptococcus pyogenes), antibiotic alone, SP-BIM 9 checkerboard, read-out: MIC antibiotic only): > 250 µg/mL | MIC ([12]; read-out: MIC antibiotic only, Escherichia coli, antibiotic alone): 16 µg/mL | MIC ([12]; read-out: MIC antibiotic only, Escherichia coli, antibiotic alone, SP-BIM 9 checkerboard): 250 µg/mL | MIC in combination: Antibiotic [12, 18]: 16 | FIC of SP-BIM 9 [12, 23]: 1 | FIC of SP-BIM 13 [12, 19]: 1.0 | Interpretation ([12]; antibiotic + SP-BIM 9): Indifferent (Indifferent: FICI>1.0-4.0) | Σ FIC ([12]; antibiotic + SP-BIM 9): <2.0 | Interpretation ([12]; antibiotic + SP-BIM 13): Indifferent (Indifferent: FICI>1.0-4.0) | Σ FIC ([12]; antibiotic + SP-BIM 13): <2.0 | MIC in combination, Antibiotic [12, 24]: 250 µg/mL | FIC of antibiotic ([12]; combination with SP-BIM 13): 1.0 | FIC of antibiotic ([12]; in combination with SP-BIM 9): 1 | MIC [13, 21]: 16 µg/mL | MIC [13, 22]: 16 µg/mL | MIC in combination, SP-BIM 9 ([13]; SP-BIM 9 concentration in combination with the labelled antibiotic): >250 µg/mL | FIC of SP-BIM 9 [13, 23]: 1 | FIC of SP-BIM 13 [13, 19]: 0.5 | Interpretation ([13]; antibiotic + SP-BIM 9): Indifferent (Indifferent: FICI>1.0-4.0) | Σ FIC ([13]; antibiotic + SP-BIM 9): <2.0 | Interpretation ([13]; antibiotic + SP-BIM 13): Synergy (Synergy: FICI≤0.5) | Σ FIC ([13]; antibiotic + SP-BIM 13): 0.5 | MIC in combination, Antibiotic [13, 24]: 16 µg/mL | MIC in combination, Antibiotic [13, 25]: 0.05 µg/mL | FIC of antibiotic ([13]; in combination with SP-BIM 9): 1 | FIC of antibiotic ([13]; in combination with SP-BIM 13): 0.01 | MIC ([14]; Staphylococcus aureus, Table 4, read-out: MIC of antibiotic, No compound): 4 µg/mL | MIC of antibiotic, No Compound ([14]; Table 8 (series SP-BIMs 21-29)): 8 µg/mL | MIC [15, 21]: 0.1 µg/mL | MIC [15, 22]: 0.1 µg/mL | FIC of SP-BIM 9 [15, 23]: 0.50 | FIC of SP-BIM 13 [15, 19]: 0.5 | Interpretation ([15]; antibiotic + SP-BIM 9): Additive (Additive: FICI>0.5-1.0) | Σ FIC ([15]; antibiotic + SP-BIM 9): <0.70 | Interpretation ([15]; antibiotic + SP-BIM 13): Additive (Additive: FICI>0.5-1.0) | Σ FIC ([15]; antibiotic + SP-BIM 13): 0.7 | MIC in combination, Antibiotic [15, 24]: 0.05 µg/mL | MIC in combination, Antibiotic [15, 25]: 0.02 µg/mL | FIC of antibiotic ([15]; in combination with SP-BIM 9): 0.20 | FIC of antibiotic ([15]; in combination with SP-BIM 13): 0.2

Oc1cc(C(c2c[nH]c3ccccc23)c2c[nH]c3ccccc23)cc(O)c1O [SP-BIM 13, 5-(di(1H-indol-3-yl)methyl)benzene-1,2,3-triol]
MIC ([1]; SP-BIM at 50 μg mL^−1, read-out: MIC of Kanamvcin with SP-BIM): 4 µg/mL | MIC ([1]; SP-BIM at 50 μg mL^−1, read-out: MIC of Vancomvcin with SP-BIM): < 0.2 µg/mL | MIC SP-BIM 13 only ([2]; SP-BIM 13 alone): >250 | reduction of ampicillin MICs by SP-BIM 13 ([5]; clinical MRSA strains, in most cases): 100 fold | MIC [10, 27]: > 250 µg/mL | MIC SP-BIM 13 only ([11]; Streptococcus pneumoniae, SP-BIM 13 alone, one value per antibiotic's checkerboard): 125 µg/mL | MIC ([11]; Streptococcus pneumoniae, SP-BIM 13 alone, one value per antibiotic's checkerboard, read-out: MIC SP-BIM 13 only): > 250 µg/mL | mortality ([16]; SP-BIM 13 only 5 mg kg^−1): 40% | mortality ([16]; SP-BIM 13 only 10 mg kg^−1): 60% | mortality ([16]; SP-BIM 13 only 25 mg kg^−1): 0% | mortality ([16]; ampicillin in combination with three levels SP-BIM 13, 5 days): 0% | survival rate ([16]; vancomycin in combination with the three levels of SP-BIM 13): similarly high survival rate | MIC SP-BIM 13 only ([12]; SP-BIM 13 alone): >250 | MIC [17]: 125 µg/mL | MIC SP-BIM 13 only [13, 28]: >250 µg/mL | MIC [13, 27]: 125 µg/mL | MIC SP-BIM 13 only [15, 28]: 125 µg/mL | MIC [15, 27]: 63 µg/mL
